Entries after “also recorded” stand apart in the source; their conditions may differ.
Tests used:
p62 and LC3 = assay: Autophagy activity in cultured cells by immunofluorescence staining and confocal microscopy (p62 and LC3 puncta); type: cell-based, human; details: for p62 activation/oligomerization, delivery to autophagosome and autophagy activity (p62 and LC3 puncta, co-existence): HeLa, 5 uM, 24 hours, FIGS. 6a and 6b; for p62 activation/oligomerization, delivery to autophagosome and autophagy activity (p62 and LC3 puncta), control compounds: different concentrations, FIG. 7
Procedure: In order to confirm the p62 protein activity and the activity level of autophagy phenomenon by the compounds (Examples 1-19), immunofluorescence staining was performed using p62 and LC3 as markers. In order to confirm the p62 activity and the activity level of autophagy phenomenon by new p62 ligands and isomers thereof in cultured cells, HeLa cell line, which is a cell line derived from cervical cancer patient, was treated with the novel p62 ligand compounds (YOK-1106, YOK-1204, YOK-1504, YOK-2204, YOK-3304, YOK-4404, YOK-1107, YOK-1109, YOK-2207, YOK-2209, YT-4-1, YT-4-2, YT-6-1, YT-9-1 and YT-9-2) and cultured. Thereafter, as markers of the autophagy phenomenon, the expression level and location of LC3 puncta and the local co-existence with p62 puncta were observed.
For immunofluorescence staining, a cover glass was placed on a 24-well plate, cells were dispensed, cultured for 24 hours, and then treated with 5 uM of the novel p62 ligands according to the present invention. For the action of the compounds, additional cultures were performed for 24 hours, and then the medium was removed. Cells were fixed using formaldehyde at room temperature. In order to prevent non-specific staining, the cells were allowed to react with a blocking solution at room temperature for 1 hour, and then treated with LC3 antibody diluted at a certain ratio using the blocking solution, and allowed to reacted at room temperature for 1 hour. The antibody-treated cells were washed three times with PBS, and goat-derived secondary antibody was diluted at a certain ratio using the blocking solution, and then allowed to react at room temperature for 30 minutes. The cells were washed again with PBS three times, and for intracellular nuclear staining, the expression level, intracellular puncta formation and intracellular coexistence level of p62 and LC3 were observed through a confocal microscopy after DAPI staining.
In order to confirm p62 protein activity and the activity level of autophagy phenomenon of control compounds (YOK-A-1104, YOK-G-1104, YTK-1005, YTK-1105-1), immunofluorescence staining was performed in the same manner as in Experimental Example 4 by using p62 and LC3 as markers. YOK-A-1104 and YOK-G-1104 are compounds having the following structures.
The compounds were treated at different concentrations, and intracellular puncta of p62 or LC3, that is, the degree to which autophagosome was formed and p62 was delivered was observed by a confocal microscopy.

p62 protein = target: T1, p62 protein (Homo sapiens, UniProt Q13501); assay: Oligomerization activity of p62 protein in cultured cells by immunoblotting; type: cell-based; details: HEK293 cell lysate treated with test compounds at room temperature for 2 hours; immunoblot, FIG. 2
T1 construct: endogenous in cells; host or cells: HEK293 (cell lysate treated with compounds)
T1 sequence (Q13501 whole entry): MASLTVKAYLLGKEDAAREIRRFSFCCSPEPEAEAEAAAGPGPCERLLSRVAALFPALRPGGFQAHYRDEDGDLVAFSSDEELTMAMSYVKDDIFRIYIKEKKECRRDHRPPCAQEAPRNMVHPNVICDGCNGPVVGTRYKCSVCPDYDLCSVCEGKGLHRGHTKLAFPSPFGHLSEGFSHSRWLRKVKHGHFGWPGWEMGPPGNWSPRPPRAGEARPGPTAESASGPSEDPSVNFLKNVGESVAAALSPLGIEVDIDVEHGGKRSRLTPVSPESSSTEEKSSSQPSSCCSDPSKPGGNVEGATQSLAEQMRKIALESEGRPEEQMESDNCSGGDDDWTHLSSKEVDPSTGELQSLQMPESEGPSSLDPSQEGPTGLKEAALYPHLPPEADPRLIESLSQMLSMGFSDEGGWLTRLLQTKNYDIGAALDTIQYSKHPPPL
Excerpt: In order to evaluate the p62 protein oligomerization activity efficacy by the compounds (Examples 1-19), HEK293 cell line, which is human embryonic kidney-derived cell, was collected. As representative compounds among the present compounds, YOK-1104, YOK-2204, YOK-3304, YOK-1204, YOK-4404, YOK-1107, YOK-1109, YOK-2207, YOK-2209, YT-4-1, YT-4-2, YT-6-1, YT-6-2, YT-6-7, YT-6-8, YT-9-1, YT-9-2 were selected. In order to measure intracellular p62 protein activation and oligomerization according to the treatment with these selected representative compounds, the respective cells were dispensed into a pi dish. The cells were collected after further culturing for 24 hours so that the cells were completely attached to the surface of the plate. 100 ul of lysis buffer (20 mM Tris, pH 7.4), 150 mM NaCl, 1% Triton X-100, 2 mM NaF, 2 mM EDTA, 2 mM beta-glycerophosphate, 5 mM sodium orthovanadate, 1 mM PMSF, leupeptin, aprotinin) were injected into each sample and the cells were lysed. Based on the measured total protein concentration, each sample was treated with test compounds at room temperature for 2 hours, and then a sample buffer was added and allowed to react at 95° C. for 10 minutes. 25 ul was taken from the samples after the reaction, and dispensed into each well of acrylamide gel, and then immunoblotting was performed.

LC3 = assay: Autophagy activity in cultured cells by immunoblotting using LC3 as a marker; type: cell-based, human; details: HeLa
Procedure: In order to evaluate the autophagy activity efficacy by the compounds (Examples 1-19), HeLa cell line, which is a cell line derived from a cervical cancer patient, was cultured using a DMEM medium containing 10% FBS and 1% streptomycin/penicillin in an incubator with 5% carbon dioxide. As representative compounds among the present compounds, YOK-1107, YOK-4404 and YOK-1104 were selected. In order to measure autophagy activity according to the treatment with these selected representative compounds, the respective cells were dispensed into 6 well plates. Additional cultures were performed […] so that the cells were completely attached to the surface of the plate. To find the concentration at which the respective compounds could increase the phenomenon of autophagy, the test compounds were diluted at 1, 2, 5, 10 and 20 μM and treated. After treatment with the respective compounds, the cells were cultured again in a cell incubator for 24 hours, and then the cells were collected. To extract proteins from the collected cells, 100 ul of lysis buffer (20 mM Tris (pH 7.4), 150 mM NaCl, 1% Triton X-100, 2 mM NaF, 2 mM EDTA, 2 mM beta-glycerophosphate, 5 mM sodium orthovanadate, 1 mM PMSF, leupeptin, aprotinin) was injected into each sample, and cells were lysed. Based on the measured total protein concentration, a sample buffer was added to each sample and allowed to react at 100° C. for 5 minutes. 5 ul was taken from the samples after the reaction, and dispensed into each well of acrylamide gel, and then immunoblotting was performed.
In order to investigate the autophagy activity efficacy by the compounds (Examples 1-19), immunoblotting was performed in the same manner as in Experimental Example 2 using LC3 as a marker. As for the difference, in order to evaluate the treatment time required for activation and the activity retention time, as the representative compounds selected among the present compounds, 5 μM of YOK-1107, YOK-1204, YOK-1304, YOK-2204, YOK-3304, […] treated for 1, 3, 6, 12, 24, 48 hours. On the other hand, as the representative compounds selected among the compounds of the present invention, […] YOK-1107, YOK-1109, YOK-2207, YOK-2209, YT-4-1, YT-4-2, YT-6-1, YT-6-2, YT-6-8, YT-6-7, YT-9-1, YT-9-2 were treated for 24 hours.
In order to investigate the autophagy activity efficacy of control compounds, immunoblotting was performed in the same manner as in Experimental Example 2 by using LC3 as a marker. As the control compounds, compounds having the following structure were used.

[1] = 5 μM, treated for 1, 3, 6, 12, 24, 48 hours, FIG. 4
[2] = 1, 2, 5, 10 and 20 μM, 24 hours, FIG. 3
[3] = treated for 24 hours (concentration not given), FIG. 4

CC(C)NC[C@@H](O)COc1ccc(OCCCCc2ccccc2)c(OCCCCc2ccccc2)c1 [YOK-4404, (R)-1-(3,4-bis(4-phenylbutoxy)phenoxy)-3-(isopropylamino)propan-2-ol]
p62 activation/oligomerization, delivery to autophagosome and autophagy activity (p62 and LC3 puncta, co-existence) (p62 and LC3): delivering them to autophagosome and simultaneously increasing autophagy activity | p62 protein oligomerization activity (p62 monomer, oligomers and high-molecular aggregates) (p62 protein): increasing the p62 protein oligomerization activity | autophagy activity (level of LC3) (LC3; [1]): increasing the autophagy activity | autophagy activity (level of LC3) (LC3; [2]): increasing the autophagy activity

CC(C)NC[C@@H](O)COc1ccc(OCCCc2ccccc2)c(OCCCc2ccccc2)c1 [YOK-3304, (R)-1-(3,4-bis(3-phenylpropoxy)phenoxy)-3-(isopropylamino)propan-2-ol]
p62 activation/oligomerization, delivery to autophagosome and autophagy activity (p62 and LC3 puncta, co-existence) (p62 and LC3): delivering them to autophagosome and simultaneously increasing autophagy activity | p62 protein oligomerization activity (p62 monomer, oligomers and high-molecular aggregates) (p62 protein): increasing the p62 protein oligomerization activity | autophagy activity (level of LC3) (LC3; [1]): gradually increased

CCOC(=O)C(C)NC[C@@H](O)COc1ccc(OCc2ccccc2)c(OCc2ccccc2)c1 (stereo partly drawn) [YOK-A-1104, Ethyl (R)-(3-(3,4-bis(benzyloxy)phenoxy)-2-hydroxypropyl)alanineate, reference compound]
p62 activation/oligomerization, delivery to autophagosome and autophagy activity (p62 and LC3 puncta), control compounds (p62 and LC3): delivering them to autophagosome and simultaneously increasing autophagy activity

OCCNC[C@@H](O)COc1ccc(OCc2ccccc2)c(OCc2ccccc2)c1 [YOK-1106]
p62 activation/oligomerization, delivery to autophagosome and autophagy activity (p62 and LC3 puncta, co-existence) (p62 and LC3): delivering them to autophagosome and simultaneously increasing autophagy activity | autophagy activity (level of LC3) (LC3; [1]): increasing the autophagy activity

OCCCCc1ccc(OCc2ccccc2)c(OCc2ccccc2)c1 [YTK-1105-1, 4-(3,4-bis(benzyloxy)phenyl)butan-1-ol, reference compound]
p62 activation/oligomerization, delivery to autophagosome and autophagy activity (p62 and LC3 puncta), control compounds (p62 and LC3): delivering them to autophagosome and simultaneously increasing autophagy activity | autophagy activity (level of LC3), control compounds (LC3; different concentrations and different times, FIG. 5): do not increase autophagy activity

OCCNCc1ccc(OCc2ccccc2)c(O)c1 [YTK-1005, reference compound]
p62 activation/oligomerization, delivery to autophagosome and autophagy activity (p62 and LC3 puncta), control compounds (p62 and LC3): delivering them to autophagosome and simultaneously increasing autophagy activity

CC(C)NC[C@@H](O)COc1ccc(OCc2ccccc2)c(OCCc2ccccc2)c1 [YOK-1204, (R)-1-(4-(benzyloxy)-3-phenethoxyphenoxy)-3-(isopropylamino)propan-2-ol]
p62 activation/oligomerization, delivery to autophagosome and autophagy activity (p62 and LC3 puncta, co-existence) (p62 and LC3): delivering them to autophagosome and simultaneously increasing autophagy activity | p62 protein oligomerization activity (p62 monomer, oligomers and high-molecular aggregates) (p62 protein): increasing the p62 protein oligomerization activity | autophagy activity (level of LC3) (LC3; [1]): gradually increased; also recorded: increasing the autophagy activity

N=C(N)NC[C@@H](O)COc1ccc(OCc2ccccc2)c(OCc2ccccc2)c1 [YOK-1107, (R)-1-(3-(3,4-bis(benzyloxy)phenoxy)-2-hydroxypropyl)guanidine]
p62 protein oligomerization activity (p62 monomer, oligomers and high-molecular aggregates) (p62 protein): increasing the p62 protein oligomerization activity | autophagy activity (level of LC3) (LC3; [1]): gradually increased; also recorded: increasing the autophagy activity | autophagy activity (level of LC3) (LC3; [2]): increasing the autophagy activity | autophagy activity (level of LC3) (LC3; [3]): gradually increased

CC(C)NC[C@@H](O)COc1ccc(OCc2ccc(Cl)cc2)c(OCc2ccc(Cl)cc2)c1 [YT-4-1, (R)-1-(3,4-bis((4-chlorobenzyl)oxy)phenoxy)-3-(isopropylamino)propan-2-ol]
p62 protein oligomerization activity (p62 monomer, oligomers and high-molecular aggregates) (p62 protein): increasing the p62 protein oligomerization activity | autophagy activity (level of LC3) (LC3; [3]): gradually increased

COC(=O)CNC[C@@H](O)COc1ccc(OCc2ccccc2)c(OCc2ccccc2)c1 [YOK-G-1104, Methyl (R)-(3-(3,4-bis(benzyloxy)phenoxy)-2-hydroxypropyl)glycineate, reference compound]
p62 activation/oligomerization, delivery to autophagosome and autophagy activity (p62 and LC3 puncta), control compounds (p62 and LC3): delivering them to autophagosome and simultaneously increasing autophagy activity

CC(C)NC[C@@H](O)COc1ccc(OCCc2ccccc2)c(OCCc2ccccc2)c1 [YOK-2204, (R)-1-(3,4-diphenethoxyphenoxy)-3-(isopropylamino)propan-2-ol]
p62 activation/oligomerization, delivery to autophagosome and autophagy activity (p62 and LC3 puncta, co-existence) (p62 and LC3): delivering them to autophagosome and simultaneously increasing autophagy activity | p62 protein oligomerization activity (p62 monomer, oligomers and high-molecular aggregates) (p62 protein): increasing the p62 protein oligomerization activity | autophagy activity (level of LC3) (LC3; [1]): gradually increased; also recorded: increasing the autophagy activity
